Test systems include SK-MEL-2 melanoma; NCI-H460 lung; SF-295 CNS; IGROV1 ovarian; PC-3 prostate; RPMI-8226 leukemia; OVCAR-8 ovarian; OVCAR-3 ovarian; HT29 colon; HL-60(TB) leukemia.
Holding throughout (assay): inhibition of tumour cell growth, NCI panel, 48 h

This note sets out measurements from PubChem BioAssay (NCI).

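Where inhibition never reached the appropriate level, the endpoint shown equals the highest concentration tested. Otherwise, values were interpolated linearly from a five-concentration, 48-hour dose response in 96-well plates. GI50 = concentration required for 50% inhibition of growth. TGI marks complete inhibition of growth.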 Some results are limits rather than exact numbers.

In the case of `COc1c(C(=O)/C=C/c2ccccc2)c(O)cc2occc12`, the GI50 is 12.4 µM with SK-MEL-2 melanoma; 3.02 µM with NCI-H460 lung; 7.83 µM in the test with SF-295 CNS; 3.51 µM in the test with IGROV1 ovarian; 7.01 µM in the test on PC-3 prostate; 3.15 µM in the test with RPMI-8226 leukemia. Further, the results for the GI50 in the test on OVCAR-8 ovarian, in the test with OVCAR-3 ovarian and in the test with HT29 colon were 3.62 µM, 3.76 µM and 6.34 µM, respectively. The TGI came out at 25.2 µM in the test on SK-MEL-2 melanoma; 8.92 µM in the test with NCI-H460 lung; 21.4 µM with SF-295 CNS; 11.4 µM in the test on IGROV1 ovarian; 37.9 µM in the test on PC-3 prostate; 9.42 µM with RPMI-8226 leukemia. Also, the TGI with OVCAR-8 ovarian worked out at 12.5 µM; with OVCAR-3 ovarian, 11.3 µM; in the test with HT29 colon, 35.6 µM.
With `C=C(C)CCN[Si](c1ccccc1)(c1ccccc1)C(C)(C)C`, the TGI was 29.2 µM in the test with SK-MEL-2 melanoma; above 100 µM with NCI-H460 lung; 36.4 µM in the test on SF-295 CNS; 72 µM in the test on IGROV1 ovarian; 44.5 µM with HL-60(TB) leukemia; 62.2 µM in the test with RPMI-8226 leukemia. The figures for the TGI in the test on OVCAR-8 ovarian, in the test with OVCAR-3 ovarian and in the test with HT29 colon were 36 µM, 32 µM and 30.2 µM, respectively.
For the compound `COc1cc(/C=C/c2ccc(OC)c(O)c2)cc(OC)c1`, the TGI with SK-MEL-2 melanoma amounted to 29.8 µM; in the test with NCI-H460 lung, 14.1 µM; in the test on SF-295 CNS, 4.54 µM; in the test on IGROV1 ovarian, 86.4 µM; in the test on HL-60(TB) leukemia it was 4.43 µM; with RPMI-8226 leukemia it was 9.92 µM. Further, the TGI in the test with OVCAR-8 ovarian came to 36.1 µM; in the test with OVCAR-3 ovarian, 4.88 µM; in the test on HT29 colon, 32.3 µM.
`COc1cc2c(cc1OCCCCC(=O)Nc1cc3c4ccccc4ccc3c3ccccc13)N=C[C@@H]1CCCN1C2=O`: the GI50 in the test with SK-MEL-2 melanoma is 8.4 µM; with NCI-H460 lung, 5.33 µM; in the test with SF-295 CNS, 6.98 µM; with IGROV1 ovarian it was 2.11 µM; in the test on PC-3 prostate it was 5.4 µM; with RPMI-8226 leukemia, 1.11 µM. In addition, the GI50 with OVCAR-8 ovarian was 7.27 µM; in the test with OVCAR-3 ovarian, 3.02 µM; in the test with HT29 colon, 5.86 µM. The TGI is 58.8 µM in the test on SK-MEL-2 melanoma; 51.5 µM in the test with NCI-H460 lung; 63.1 µM in the test on SF-295 CNS; above 25.6 µM in the test with IGROV1 ovarian; above 65.9 µM in the test on PC-3 prostate; 20 µM with OVCAR-8 ovarian. The TGI in the test on OVCAR-3 ovarian was 10.1 µM; in the test with HT29 colon, above 76.2 µM.
Turning to `S=c1ssc(N2CCOCC2)c1Cl`, the GI50 is above 100 µM in the test with SK-MEL-2 melanoma; 21.5 µM with NCI-H460 lung; 25.8 µM in the test with SF-295 CNS; 40.2 µM in the test on PC-3 prostate; 24.4 µM with HL-60(TB) leukemia; 23.3 µM in the test on RPMI-8226 leukemia. In addition, the results for the GI50 in the test on OVCAR-8 ovarian, with OVCAR-3 ovarian and in the test on HT29 colon were above 100 µM, 39.3 µM and 47.4 µM, respectively. Besides, the TGI is above 100 µM in the test on SK-MEL-2 melanoma; 67 µM in the test on NCI-H460 lung; above 100 µM with SF-295 CNS; above 100 µM in the test with PC-3 prostate; 63.3 µM with HL-60(TB) leukemia; 69.2 µM in the test with RPMI-8226 leukemia. Also, the TGI in the test on OVCAR-8 ovarian, in the test on OVCAR-3 ovarian and in the test on HT29 colon was above 100 µM each time.
Turning to `COC(=O)[C@@]12C(=O)C=CC(=O)C1C1C(=CC2C)OC2OC3(CCCCC3)OC21` (stereo partly drawn), the TGI came to 35.5 µM with SK-MEL-2 melanoma; 35.7 µM with NCI-H460 lung; 32.9 µM with SF-295 CNS; 35.1 µM in the test with IGROV1 ovarian; 15.7 µM in the test on HL-60(TB) leukemia; 26.4 µM with RPMI-8226 leukemia. The TGI was determined as 30.9 µM with OVCAR-8 ovarian, 33.8 µM in the test with OVCAR-3 ovarian and 44.9 µM in the test on HT29 colon.
As for `Nc1ccccc1/C(O)=C1/CCOC1=O`, the TGI in the test on SK-MEL-2 melanoma, with NCI-H460 lung, with SF-295 CNS, in the test with IGROV1 ovarian, with HL-60(TB) leukemia and in the test with RPMI-8226 leukemia was above 100 µM throughout. For the same compound, the TGI in the test with OVCAR-8 ovarian, with OVCAR-3 ovarian and in the test on HT29 colon was above 100 µM throughout.
As for `COc1ccc(CN2CC(C)(C)C2=O)c(OC)c1`, the TGI in the test on SK-MEL-2 melanoma, in the test on NCI-H460 lung, in the test with SF-295 CNS, in the test with IGROV1 ovarian, in the test with HL-60(TB) leukemia and in the test on RPMI-8226 leukemia was above 100 µM each time. Also, the TGI in the test on OVCAR-8 ovarian, in the test with OVCAR-3 ovarian and with HT29 colon was above 100 µM in each case.
Consider `c1ccc(C2N3CCCCC3[C@@H]3c4[nH]c5ccccc5c4CCN23)nc1` (stereo partly drawn), for which the TGI in the test with SK-MEL-2 melanoma, in the test on NCI-H460 lung, in the test on SF-295 CNS, in the test with IGROV1 ovarian, in the test with HL-60(TB) leukemia and with RPMI-8226 leukemia was above 100 µM throughout. Besides, the TGI in the test on OVCAR-8 ovarian, with OVCAR-3 ovarian and with HT29 colon was above 100 µM each time.
On to `COc1ccc(/C=C/c2c(C(=O)/C=C/c3ccccc3)c(C)nc3ccccc23)cc1`, for which the GI50 with SK-MEL-2 melanoma was 2.11 µM; with SF-295 CNS, 2.62 µM; in the test with IGROV1 ovarian, 1.57 µM; with PC-3 prostate it was 1.66 µM; with HL-60(TB) leukemia it was 2.3 µM; in the test with RPMI-8226 leukemia, 1.74 µM. Besides, the GI50 in the test with OVCAR-8 ovarian was 1.75 µM; with OVCAR-3 ovarian it was 1.65 µM; with HT29 colon it was 2.4 µM. Besides, the TGI worked out at 5.06 µM in the test with SK-MEL-2 melanoma; 7.46 µM in the test on SF-295 CNS; 5.36 µM in the test with IGROV1 ovarian; 3.81 µM with PC-3 prostate; 5.79 µM in the test on HL-60(TB) leukemia; 5.54 µM in the test with RPMI-8226 leukemia. The results for the TGI in the test on OVCAR-8 ovarian, with OVCAR-3 ovarian and with HT29 colon were 4.1 µM, 3.12 µM and above 100 µM, respectively.
For the compound `CCOC(=O)C1SC(=Nc2ccc(C)c(C)c2)N=C1C` (stereo not drawn), the TGI in the test on SK-MEL-2 melanoma, with NCI-H460 lung, in the test on SF-295 CNS, in the test with IGROV1 ovarian, with HL-60(TB) leukemia and in the test with RPMI-8226 leukemia was above 100 µM throughout. The TGI in the test with OVCAR-8 ovarian, with OVCAR-3 ovarian and with HT29 colon was above 100 µM in each case.
With `CN(C)CCC1(C2=CCCC2)CC/C(=C\c2ccc(Cl)cc2)C1=O` (stereo not drawn), the TGI in the test with SK-MEL-2 melanoma came out at 14.2 µM; with NCI-H460 lung, 26.9 µM; in the test with SF-295 CNS it was 20.8 µM; with IGROV1 ovarian it was 21 µM; with HL-60(TB) leukemia it was 3.91 µM; with RPMI-8226 leukemia, 22.4 µM. Besides, the TGI in the test on OVCAR-8 ovarian stood at 25.3 µM; in the test with OVCAR-3 ovarian it was 26.8 µM; with HT29 colon, 8.35 µM.
